{"source": "patent US7250251B2", "about": "“Virion-based fusion assay” (The J. David Gladstone Institutes, priority 2002, dated 2007)", "key": {"[1]": {"tested_on": "X4-tropic NL4-3 virions containing BlaM-Vpr fusing to SupT1 cells", "experiment": "Virion-based fusion assay (BlaM-Vpr/CCF2) in SupT1 cells, flow cytometry", "assay_type": "cell-based, HIV-1", "conditions": "NL4-3, 2 hours, about 20% of cells shifted without inhibitor", "experimental": "(§1) No antibiotics were added to the culture media.\n(§2) Light splitting was performed using a 505 SP filter.\nAfter CCF2/AM loading, fusion was analyzed by multi-parameter flow cytometry using a violet laser for excitation of CCF2."}, "[2]": {"tested_on": "CXCR4-tropic HIV-1 virions containing BlaM-Vpr fusing to primary PBMCs", "experiment": "Virion-based fusion assay (BlaM-Vpr/CCF2) in PHA-stimulated PBMCs, flow cytometry", "assay_type": "cell-based", "conditions": "CXCR4-tropic virions 100 ng p24 Gag, 2 hours, 5.2% of cells fused without inhibitor", "experimental": "as §1, §2\nPBMCs were activated with phytohemagglutinin (PHA) (10 ug/ml) overnight and subsequently cultured in IL-2 (20 IU/ml) for 5 days. The cells were then either mock-infected (FIG. 5, panel a) or infected for 2 hours with 100 ng p24-Gag of X4-tropic NL4-3 virions containing the BlaM-Vpr chimeric viral protein (FIG. 5, panels b, c, d, and e) or 500 ng p24-Gag of R5-tropic […] virions containing the BlaM-Vpr chimeric viral protein (FIG. 5, panels f, g, h, and i) either in the absence of inhibitors (FIG. 5, panel b and f) or in the presence of AMD3100 (250 nM, FIG. 5, panel c and g), […] (250 nM, FIG. 5, panels d and h), or AZT (10 μM, FIG. 5, panels e and i). After CCF2/AM dye loading of the cells, the BlaM reaction was allowed to develop for 12 hours. Virion fusion was analyzed by multi-parameter flow cytometry."}, "[3]": {"tested_on": "X4-tropic NL4-3 strain of HIV (BlaM-Vpr-containing virions) fusing to HeLa-CD4 cells", "conditions": "250 nM added 1 hour prior to infection, NL4-3 200 ng p24-Gag, 2 hours, about 10% blue cells without inhibitor", "quoted_text": "The virion-based fusion assay was performed in three successive steps, including 1) incubation of target cells with virus particles; 2) loading of target cells with CCF2/AM dye, and 3) development and detection of the BlaM reaction. Once target cells were loaded with the CCF2 dye, the cells were maintained at room temperature to avoid export of CCF2. Since viral infections are performed at 37° C., the infection step was performed first, and then the cell cultures were subsequently loaded with the CCF2/AM dye. […]\nThe change in emission fluorescence of CCF2 following cleavage by the BlaM-Vpr chimera was monitored by flow cytometry using a 3 laser Vantage SE instrument (Becton Dickinson, Inc., San Jose, Calif.). […] Blue emission was detected using an HQ455/50 filter while green emission data was collected using an HQ545/90 BP filter. […] Data were collected using CellQuest and analyzed with FlowJo software (Treestar Inc., San Carlos, Calif.). […]\nCultures of HeLa-CD4 cells expressing endogenous CXCR4 receptors were either mock-infected or infected for 2 hours with BlaM-Vpr-containing virions (200 ng p24-Gag) corresponding to an X4-tropic NL4-3 strain of HIV or an R5-tropic 81A strain of HIV. […] After loading of the cells with the CCF2/AM dye, fusion was analyzed by fluorescence microscopy. […]"}, "[4]": {"tested_on": "CCR5-tropic strain of HIV-1 (81A) containing BlaM-Vpr fusing to CCR5-Jurkat T cells", "experiment": "Virion-based fusion assay (BlaM-Vpr/CCF2) in Jurkat T cells expressing CCR5", "assay_type": "cell-based", "conditions": "250 nM preincubation, R5-tropic 81A virions", "experimental": "as §1, §2\nTo investigate whether the BlaM-Vpr assay discriminates between productive and non-productive virion entry by fusion and endocytosis respectively, Jurkat T cells either expressing or not expression CCR5 were incubated with a CCR5-tropic strain of HIV-1 (81A) containing BlaM-Vpr (FIG. 3). […] These 81A virions were capable of fusion as indicated by the increase in blue fluorescence obtained when these virions were incubated with Jurkat T cells expressing CCR5 (FIG. 3, panel d, compare with mock infection control in FIG. 3, panel c)."}}}
{"smiles": "c1cc(CN2CCCNCCNCCCNCC2)ccc1CN1CCCNCCNCCCNCC1", "note": "[AMD3100]", "values": [{"measurement": "shift to increased blue fluorescence induced by viral infection (virion fusion)", "setting": "[1]; 250 nM pretreatment", "value": "almost completely blocked"}, {"measurement": "inhibition of shift to greater blue fluorescence (virion fusion)", "setting": "[2]; 250 nM pretreatment", "value": "inhibited this change"}, {"measurement": "blue cells (virion fusion, CCF2 cleavage) in virally infected cells pretreated with inhibitor", "setting": "[3]", "value": "essentially no blue cells were detected"}]}
{"smiles": "Cc1cn([C@H]2C[C@H](N=[N+]=[N-])[C@@H](CO)O2)c(=O)[nH]c1=O", "note": "[AZT]", "values": [{"measurement": "shift to increased blue fluorescence induced by viral infection (virion fusion)", "setting": "[1]; 10 μM", "value": "did not impair the shift to greater blue fluorescence"}, {"measurement": "inhibition of shift to greater blue fluorescence (virion fusion)", "setting": "[2]; 10 μM pretreatment", "value": "produced no inhibitory effect"}]}
{"smiles": "Cc1ccc(-c2ccc3c(c2)C=C(C(=O)Nc2ccc(C[N+](C)(C)C4CCOCC4)cc2)CCC3)cc1.[Cl-]", "note": "[TAK-779]", "values": [{"measurement": "inhibition of shift to greater blue fluorescence (virion fusion)", "setting": "[2]; 250 nM pretreatment", "value": "produced no inhibitory effect"}, {"measurement": "shift to increased blue fluorescence (virion fusion)", "setting": "[4]", "value": "no shift to increased blue fluorescence was observed"}]}
